The source of these data is patent US3987028A, “Antibiotic 20,798 R.P” (Rhone-Poulenc S.A., priority 1968, dated 1976).

≈ marks a conversion by molar mass, not a printed value. Where a name gives a salt, the structure may show the parent alone.

Series [1] is described as follows: solubility. Format: physicochemical.
Series [2] relates to Brucella bronchiseptica (CN 387 - Wellcome Institute). As to the kind of experiment: microbe, parasite or virus in culture. It counts as cell-based. To be noted: Bordetella bronchiseptica, read-out: Minimal inhibitory concentration.
Series [3] in a line: toxicity on mice (LD50). The note with it: mouse, in vivo, ip, intra-peritoneal (i.p.), read-out: 50% lethal dose (LD50). Here is the method: The toxicity of 20,798 R.P. has been studied principally on mice. The 50% lethal dose or LD50 was determined intra-peritoneally: […]
In series [4] the test system is sarcoma 180. Description: anti-tumor activity in mice, sarcoma 180.
Series [5] has as its system leucaemia L 1210. Description: anti-tumor activity in mice, leucaemia L 1210.
A short description of series [6]: stability to acid treatment of the fermentation broth. Format: physicochemical. To be noted: 10° to 75° C., 48 hours to 30 minutes. Here is the method:
When desired, the fermentation broth can, before the extraction procedures, be treated with an acid at a temperature between 10° and 75° C. for a period of from 48 hours to 30 minutes, the length of time varying inversely with the temperature, so as to enrich the antibiotic 9865 R.P. with daunorubicin. […] For acidification of the fermentation broth inorganic acids (hydrochloric, phosphoric or sulphuric acid) or organic acids (acetic or oxalic acid etc.) are suitable at various concentrations, but preferably hydrochloric acid or oxalic acid is used at concentrations of between 0.01N and 1N. The hydrolysis is preferably carried out for a period of from 15 hours to 1 hour at a temperature of from 20° C. to 50° C., the length of time varying inversely with the temperature.

Series [7] has as its system Mycobacterium smegmatis ATCC 607. It counts as cell-based. To be noted: Mycolicibacterium smegmatis, ATCC607, read-out: Minimal inhibitory concentration. The procedure:
(§1) The bacteriostatic activity of 20,798 R.P. was determined by one of the dilution methods usually employed for this purpose. For each microorganism the minimum concentration of antibiotic, which under specified conditions inhibits all visible development of the microorganism in an appropriate nutrient medium, was determined. The results of the various determinations are collected in Table III below, in which the minimum bacteriostatic concentrations are expressed in micrograms of substance per cc. of test medium.

The subject of series [8] is Neisseria catarrhalis A 152. Format: cell-based. To be noted: A152, read-out: Minimal inhibitory concentration. Here is the method:
as §1

For series [9], the system named is Diplococcus pneumoniae (strain Til, Institut Pasteur). It counts as cell-based. To be noted: Streptococcus pneumoniae, read-out: Minimal inhibitory concentration. The procedure: as §1
The test system of series [10] is Streptococcus faecalis (Faculty of Pharmacy, Paris). It counts as cell-based. The note with it: Enterococcus faecalis, read-out: Minimal inhibitory concentration. Here is the method: as §1
Series [11] has as its system Staphylococcus aureus, strain 209 P ATCC 6538 P. Format: cell-based. The note with it: ATCC6538; Staphylococcus aureus 209 P ATCC 6538 P; read-out: Minimal inhibitory concentration. The procedure: as §1
Series [12] deals with Klebsiella pneumoniae ATCC 10,031. It counts as cell-based. The note with it: read-out: Minimal inhibitory concentration. The procedure: as §1
For series [13], the system named is Streptococcus pyogenes hemolyticus (strain Dig. 7, Institut Pasteur). It counts as cell-based. To be noted: read-out: Minimal inhibitory concentration. Here is the method: as §1
The subject of series [14] is Sarcina lutea ATCC 9341. Format: cell-based. The note with it: Micrococcus luteus, ATCC9341, read-out: Minimal inhibitory concentration. The procedure: as §1
The subject of series [15] is Mycobacterium phlei (Bacteriological Institute of Lyon). Format: cell-based. The note with it: Mycolicibacterium phlei, read-out: Minimal inhibitory concentration. The procedure:
as §1

In series [16] the test system is Proteus X 19. It counts as cell-based. The note with it: read-out: Minimal inhibitory concentration. Here is the method: as §1
Series [17] concerns Bacillus subtilis (ATCC 6633). It counts as cell-based. To be noted: ATCC6633, read-out: Minimal inhibitory concentration. The procedure: as §1
The subject of series [18] is Pasteurella multocida (A 125, Institut Pasteur). It counts as cell-based. To be noted: read-out: Minimal inhibitory concentration. Here is the method:
as §1

Series [19] relates to Mycobacterium para-smegmatis (A 75, Lausanne). It counts as cell-based. The note with it: read-out: Minimal inhibitory concentration. Here is the method: as §1
Series [20] relates to Salmonella paratyphi A (Lacasse, Institut Pasteur). It counts as cell-based. To be noted: Salmonella enterica, read-out: Minimal inhibitory concentration. The procedure:
as §1

Series [21] has as its system Lactobacillus casei ATCC 7469. It counts as cell-based. To be noted: Lacticaseibacillus casei, ATCC7469, read-out: Minimal inhibitory concentration. Here is the method:
as §1

For the compound `COc1cccc2c1C(=O)c1c(O)c3c(c(O)c1C2=O)CC(O)(C(C)O)CC3OC1CC(N)C(O)C(C)O1` (stereo not shown) [20,798 R.P. hydrochloride], the Solubility entry was “soluble” in [1] (alcohols); “practically insoluble” in series [1] (benzene); “sparingly soluble” in [1] (chloroform); “practically insoluble” in series [1] (diethyl ether); “soluble” in [1] (water).

A word on the LD50: it is the dose expected to kill half of the subjects tested. In the case of `COc1cccc2c1C(=O)c1c(O)c3c(c(O)c1C2=O)CC(O)(C(C)O)CC3OC1CC(N)C(O)C(C)O1` (stereo not shown) [20,798 R.P.], the MIC in series [2] is 170 µg/mL (≈ 321 µM); in series [7] it was 5.8 µg/mL (≈ 11 µM); in [8] it was > 28 µg/mL; in [9] it was 6.1 µg/mL (≈ 11.5 µM); in series [10] it was > 33 µg/mL; in series [11], 100 µg/mL (≈ 189 µM). Moreover, the MIC in [12] was > 330 µg/mL; in series [13], 11 µg/mL (≈ 20.8 µM); in [14] it was 12 µg/mL (≈ 22.7 µM); in series [15], 3.1 µg/mL (≈ 5.85 µM); in [16], > 83 µg/mL; in series [17] it was 21 µg/mL (≈ 39.7 µM). For the same compound, the MIC in series [18] was 14 µg/mL (≈ 26.4 µM); in series [19], 3.1 µg/mL (≈ 5.85 µM); in [20] it was > 83 µg/mL; in series [21], 24 µg/mL (≈ 45.3 µM). In addition, in series [3], the median lethal dose (LD50) turned out to be 6.5 mg/kg. In addition, the ED50 in [4] (Mus musculus, Sarcoma-180, sc, read-out: 50% active dose (AD50)) was 0.75 mg/kg; in [5] (Mus musculus, L1210, ip, read-out: 50% active dose (AD50)), 0.8 mg/kg. In addition, the anti-tumor activity entry in [4] (graftable tumours of mice, solid form of sarcoma 180) is on record as “particularly active”; in [5] (graftable tumours of mice, leucaemia L 1210) it was “particularly active”. For the same compound, in series [6], the “hydrolysis under acid treatment” value is listed as “not hydrolysed”.

As to `COc1cccc2c1C(=O)c1c(O)c3c(c(O)c1C2=O)CC(O)(C(C)O)CC3O` (stereo not shown) [aglycone of 20,798 R.P.], the Solubility result in [1] (benzene) was “very sparingly soluble”; in [1] (chloroform), “sparingly soluble”; in series [1] (diethyl ether) it was “practically insoluble”; in series [1] (ethyl acetate) it was “sparingly soluble”; in series [1] (hexane) it was “practically insoluble”; in series [1] (methanol), “sparingly soluble”. The Solubility entry in series [1] (water) was “practically insoluble”.
